Source: patent publication US20250290117A1, “MOLECULAR PHENOTYPIC ANTIMICROBIAL SUSCEPTIBILITY TESTING” (priority 2024, published 2025)

Key:
[1] = test system: pathogen of the specimen; test: Molecular phenotypic antimicrobial susceptibility test with direct PCR at various incubation timepoints (Table 7); type: cell-based
Description: Detection of Molecular Phenotypic Antimicrobial Susceptibility. Disclosed herein are the methods for the detection of phenotypic antimicrobial susceptibility via molecular methods. The present invention describes how a specimen 100 with a known microbial load is incubated and then exposed to a panel of antimicrobial agents to determine sensitivity (prevention of growth) or resistance (allowance of growth) to the specific antimicrobial agents tested utilizing molecular methods. Sample Collection. Specimens 100 are collected from patients using sterile collection processes that are employed in routine clinical care. Specimens are transported to the testing facility in boric acid preservative. […] The process for pathogen isolation includes steps of harvesting the pathogen (e.g., via centrifugation), isolating pathogen DNA via a DNA isolation and/or purification kit, and performing PCR on the pathogen DNA via PCR components (e.g., primers, enzymes, buffers) as would be known to the skilled artisan. […] This aliquot is used for antimicrobial susceptibility testing if indicated based on the pathogen detection results. […] Specimens 100 with lower pathogen loads could also be utilized in the antibiotic susceptibility phase of testing with or without a longer incubation period. […] Antimicrobial solutions are prepared at known concentrations. The specific antimicrobials and their concentrations are selected based on the pathogen of interest and the described antimicrobial resistance breakpoints for that specimen pathogen and antimicrobial combination. These antimicrobials have been selected based on those commonly utilized by healthcare providers in routine clinical care for the specific type of suspected infection. The number and types of antimicrobials utilized can be customized based on the infection source, pathogen detected, patient-specific factors such as allergies or other health conditions (e.g., chronic kidney disease or concurrent medication use), or healthcare provider preferences such as antimicrobial availability or cost. The antimicrobial solutions are prepared in liquid culture media (such as Muller Hinton Broth) to achieve the desired antimicrobial concentration and are then stored at −80° C. until use. For a given specimen, each antimicrobial is tested at a single or multiple antimicrobial concentration(s) which is its established breakpoints for sensitivity. The antimicrobial solutions are prepared and plated out for each specific pathogen. […] This allows for evaluation of pathogen load when no antimicrobial is present. Specimen Exposure to Antimicrobial Agents. The 1 mL aliquot of the specimen 100 previously mixed with culture media and incubated is obtained. Using optical density measurements as a guide, the specimen 100 is diluted to 0.5 McFarland. […] Antimicrobial exposure plates are typically placed into an incubator for 12-16 hours. […] Nucleic Acid Amplification of Antimicrobial Agent Exposed Pathogens. The antimicrobial exposure plate is removed after the period of incubation. The specimen then undergoes a purification or lysis step. For example, the specimen may undergo a purification step (e.g., magnetic bead-based or other separation protocol to isolate genetic material). In another example, the specimen may undergo a cell lysis step. For example, buffer (e.g., lysis buffer) may be added and incubated in the thermal cycler for preparation for direct PCR. Next, the specimen may undergo a polymerase chain reaction (PCR) testing protocol, whereby a semi-quantitative PCR method is utilized. This may be completed either with or without a specific extraction protocol step. The pathogens can be individually targeted and detected, or a universal genetic sequence can be utilized to detect the antimicrobial susceptibility of the specimen as a whole. The control wells are utilized as a threshold for determining antimicrobial sensitivity or resistance. […] Antimicrobial Susceptibility Result Interpretation.

[2] = test system: Escherichia coli; test: Molecular phenotypic antimicrobial susceptibility test (extraction or DNA purification prior to PCR); type: cell-based
Description: Detection of Molecular Phenotypic Antimicrobial Susceptibility. Disclosed herein are the methods for the detection of phenotypic antimicrobial susceptibility via molecular methods. The present invention describes how a specimen 100 with a known microbial load is incubated and then exposed to a panel of antimicrobial agents to determine sensitivity (prevention of growth) or resistance (allowance of growth) to the specific antimicrobial agents tested utilizing molecular methods.
Sample Collection. Specimens 100 are collected from patients using sterile collection processes that are employed in routine clinical care. Specimens are transported to the testing facility in boric acid preservative.
Preparation of the Specimens for Testing. […] The process for pathogen isolation includes steps of harvesting the pathogen (e.g., via centrifugation), isolating pathogen DNA via a DNA isolation and/or purification kit, and performing PCR on the pathogen DNA via PCR components (e.g., primers, enzymes, buffers) as would be known to the skilled artisan. […] This aliquot is used for antimicrobial susceptibility testing if indicated based on the pathogen detection results. […] Specimens 100 with lower pathogen loads could also be utilized in the antibiotic susceptibility phase of testing with or without a longer incubation period.
Preparation of Antimicrobial Susceptibility Testing Plates. Antimicrobial solutions are prepared at known concentrations. The specific antimicrobials and their concentrations are selected based on the pathogen of interest and the described antimicrobial resistance breakpoints for that specimen pathogen and antimicrobial combination. These antimicrobials have been selected based on those commonly utilized by healthcare providers in routine clinical care for the specific type of suspected infection. The number and types of antimicrobials utilized can be customized based on the infection source, pathogen detected, patient-specific factors such as allergies or other health conditions (e.g., chronic kidney disease or concurrent medication use), or healthcare provider preferences such as antimicrobial availability or cost.
The antimicrobial solutions are prepared in liquid culture media (such as Muller Hinton Broth) to achieve the desired antimicrobial concentration and are then stored at −80° C. until use. For a given specimen, each antimicrobial is tested at a single or multiple antimicrobial concentration(s) which is its established breakpoints for sensitivity. The antimicrobial solutions are prepared and plated out for each specific pathogen. […] This allows for evaluation of pathogen load when no antimicrobial is present.
Specimen Exposure to Antimicrobial Agents. The 1 mL aliquot of the specimen 100 previously mixed with culture media and incubated is obtained. Using optical density measurements as a guide, the specimen 100 is diluted to 0.5 McFarland.
Antimicrobial exposure plates are typically placed into an incubator for 12-16 hours.
Nucleic Acid Amplification of Antimicrobial Agent Exposed Pathogens. The antimicrobial exposure plate is removed after the period of incubation. The specimen then undergoes a purification or lysis step. For example, the specimen may undergo a purification step (e.g., magnetic bead-based or other separation protocol to isolate genetic material). In another example, the specimen may undergo a cell lysis step. For example, buffer (e.g., lysis buffer) may be added and incubated in the thermal cycler for preparation for direct PCR. Next, the specimen may undergo a polymerase chain reaction (PCR) testing protocol, whereby a semi-quantitative PCR method is utilized. This may be completed either with or without a specific extraction protocol step. The pathogens can be individually targeted and detected, or a universal genetic sequence can be utilized to detect the antimicrobial susceptibility of the specimen as a whole.

[3] = E. coli isolate 1189, antibiotic incubation time 4 hours
[4] = E. coli isolate 1189, antibiotic incubation time 6 hours
[5] = E. coli isolate 1189, antibiotic incubation time 6 hours, control average Ct 16.992
[6] = E. coli isolate 1189, antibiotic incubation time 8 hours
[7] = E. coli isolate 1189, antibiotic incubation time 10 hours
[8] = E. coli isolate 1189, antibiotic incubation time 12 hours
[9] = E. coli isolate 1189, antibiotic incubation time 12 hours, control average Ct 15.495
[10] = E. coli isolate 1189, antibiotic incubation time 14 hours
[11] = E. coli isolate 1189, antibiotic incubation time 14 hours, control average Ct 15.826
[12] = E. coli isolate 1189, antibiotic incubation time 16 hours
[13] = E. coli isolate 1189, antibiotic incubation time 16 hours, control average Ct 14.880
[14] = E. coli isolate 4, at sensitive breakpoint
[15] = E. coli isolate 5, Ct at control (average) 21.0933
[16] = E. coli isolate 5, at sensitive breakpoint
[17] = E. coli isolate 1189, antibiotic incubation time 4 hours, control average Ct […]
[18] = E. coli isolate 1189, antibiotic incubation time 8 hours, control average Ct […]
[19] = E. coli isolate 1189, antibiotic incubation time 10 hours, control average Ct 15.995
[20] = E. coli isolate 1, Ct at control (average) 21.238
[21] = E. coli isolate 1, at sensitive breakpoint
[22] = E. coli isolate 2, Ct at control (average) 21.270
[23] = E. coli isolate 2, at sensitive breakpoint
[24] = E. coli isolate 3, Ct at control (average) 22.0995
[25] = E. coli isolate 3, at sensitive breakpoint
[26] = E. coli isolate 4, Ct at control (average) 17.5733

CC1(C)S[C@@H]2[C@H](NC(=O)[C@H](N)c3ccccc3)C(=O)N2[C@H]1C(=O)O [Ampicillin]
Molecular Antimicrobial Susceptibility Result [1, 3]: Resistant | Molecular Antimicrobial Susceptibility Result [1, 4]: Resistant | Ct at Sensitive Breakpoint [1, 5]: 15.362 | Molecular Antimicrobial Susceptibility Result [1, 6]: Resistant | Molecular Antimicrobial Susceptibility Result [1, 7]: Resistant | Molecular Antimicrobial Susceptibility Result [1, 8]: Resistant | Ct at Sensitive Breakpoint [1, 9]: 15.183 | Molecular Antimicrobial Susceptibility Result [1, 10]: Resistant | Ct at Sensitive Breakpoint [1, 11]: 15.465 | Molecular Antimicrobial Susceptibility Result [1, 12]: Resistant | Ct at Sensitive Breakpoint [1, 13]: 15.036 | Molecular Antimicrobial Susceptibility Result [2, 14]: Resistant | Ct at Sensitive Breakpoint [2, 15]: 24.64 | Molecular Antimicrobial Susceptibility Result [2, 16]: Sensitive (Antimicrobial wells with pathogen load detected below the control wells (typically >2 cycle thresholds later) may be reported as Sensitive)

Cc1nnc(SCC2=C(C(=O)O)N3C(=O)[C@@H](NC(=O)Cn4cnnn4)[C@H]3SC2)s1 [Cefazolin]
Molecular Antimicrobial Susceptibility Result [1, 3]: Resistant | Ct at Sensitive Breakpoint [1, 17]: 16.209 | Molecular Antimicrobial Susceptibility Result [1, 4]: Resistant | Ct at Sensitive Breakpoint [1, 5]: 16.328 | Molecular Antimicrobial Susceptibility Result [1, 6]: Resistant | Ct at Sensitive Breakpoint [1, 18]: 17.305 | Molecular Antimicrobial Susceptibility Result [1, 7]: Resistant | Ct at Sensitive Breakpoint [1, 19]: 15.756 | Molecular Antimicrobial Susceptibility Result [1, 8]: Resistant | Ct at Sensitive Breakpoint [1, 9]: 15.126 | Molecular Antimicrobial Susceptibility Result [1, 10]: Resistant | Ct at Sensitive Breakpoint [1, 11]: 17.599 | Molecular Antimicrobial Susceptibility Result [1, 12]: Resistant | Ct at Sensitive Breakpoint [1, 13]: 15.199 | Ct at Sensitive Breakpoint [2, 20]: 20.925 | Molecular Antimicrobial Susceptibility Result [2, 21]: Resistant | Ct at Sensitive Breakpoint [2, 22]: 19.313 | Molecular Antimicrobial Susceptibility Result [2, 23]: Resistant | Ct at Sensitive Breakpoint [2, 24]: 20.834 | Molecular Antimicrobial Susceptibility Result [2, 25]: Resistant | Ct at Sensitive Breakpoint [2, 26]: 17.23 | Molecular Antimicrobial Susceptibility Result [2, 14]: Resistant | Ct at Sensitive Breakpoint [2, 15]: 25.36 | Molecular Antimicrobial Susceptibility Result [2, 16]: Sensitive (Antimicrobial wells with pathogen load detected below the control wells (typically >2 cycle thresholds later) may be reported as Sensitive)

CO/N=C(\C(=O)N[C@@H]1C(=O)N2C(C(=O)[O-])=C(C[N+]3(C)CCCC3)CS[C@H]12)c1csc(N)n1 [Cefepime]
Molecular Antimicrobial Susceptibility Result [1, 3]: Sensitive (Antimicrobial wells with pathogen load detected below the control wells (typically >2 cycle thresholds later) may be reported as Sensitive) | Ct at Sensitive Breakpoint [1, 17]: 20.399 | Molecular Antimicrobial Susceptibility Result [1, 4]: Sensitive (Antimicrobial wells with pathogen load detected below the control wells (typically >2 cycle thresholds later) may be reported as Sensitive) | Ct at Sensitive Breakpoint [1, 5]: 20.178 | Molecular Antimicrobial Susceptibility Result [1, 6]: Sensitive (Antimicrobial wells with pathogen load detected below the control wells (typically >2 cycle thresholds later) may be reported as Sensitive) | Ct at Sensitive Breakpoint [1, 18]: 21.204 | Molecular Antimicrobial Susceptibility Result [1, 7]: Sensitive (Antimicrobial wells with pathogen load detected below the control wells (typically >2 cycle thresholds later) may be reported as Sensitive) | Ct at Sensitive Breakpoint [1, 19]: 21.613 | Molecular Antimicrobial Susceptibility Result [1, 8]: Sensitive (Antimicrobial wells with pathogen load detected below the control wells (typically >2 cycle thresholds later) may be reported as Sensitive) | Ct at Sensitive Breakpoint [1, 9]: 22.447 | Molecular Antimicrobial Susceptibility Result [1, 10]: Sensitive (Antimicrobial wells with pathogen load detected below the control wells (typically >2 cycle thresholds later) may be reported as Sensitive) | Ct at Sensitive Breakpoint [1, 11]: 22.420 | Molecular Antimicrobial Susceptibility Result [1, 12]: Sensitive (Antimicrobial wells with pathogen load detected below the control wells (typically >2 cycle thresholds later) may be reported as Sensitive) | Ct at Sensitive Breakpoint [1, 13]: 23.502 | Ct at Sensitive Breakpoint [2, 26]: 17.09 | Molecular Antimicrobial Susceptibility Result [2, 14]: Resistant | Ct at Sensitive Breakpoint [2, 15]: 26.77 | Molecular Antimicrobial Susceptibility Result [2, 16]: Sensitive (Antimicrobial wells with pathogen load detected below the control wells (typically >2 cycle thresholds later) may be reported as Sensitive)

Ampicillin/Sulbactam
Ct at Sensitive Breakpoint [2, 20]: 19.827 | Molecular Antimicrobial Susceptibility Result [2, 21]: Resistant | Ct at Sensitive Breakpoint [2, 22]: 21.753 | Molecular Antimicrobial Susceptibility Result [2, 23]: Resistant | Ct at Sensitive Breakpoint [2, 24]: 20.363 | Molecular Antimicrobial Susceptibility Result [2, 25]: Resistant
